How the values were obtained:
Test in all cases: relative viability (nuclei count vs DMSO), 5 days (fraction); higher = more cells survive
Tosedostat + OSI-027 = compound: CC(C)C[C@@H](C(=O)N[C@H](C(=O)OC1CCCC1)c1ccccc1)[C@H](O)C(=O)NO [Tosedostat] + COc1cccc2cc(-c3nc([C@H]4CC[C@H](C(=O)O)CC4)n4ncnc(N)c34)[nH]c12 [OSI-027] (partner 0.5 µM)
Method in brief: (§1)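 Dosing by pin tool came one day after lung cancer cell lines were seeded in 1536-well plates, using either one drug or a fixed anchor-drug dose plus five library-drug doses (not always all listed) in √10 steps. After 5 days, nuclei were counted on 4× images. Relative viability is treated-well nuclei count divided by vehicle-well nuclei count, and values are medians of duplicate plates.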

Tosedostat + Linsitinib = compound: CC(C)C[C@@H](C(=O)N[C@H](C(=O)OC1CCCC1)c1ccccc1)[C@H](O)C(=O)NO [Tosedostat] + C[C@]1(O)C[C@@H](c2nc(-c3ccc4ccc(-c5ccccc5)nc4c3)c3c(N)nccn32)C1 [Linsitinib] (partner 1 µM)
Method in brief: as §1

Tosedostat + Phenformin = compound: CC(C)C[C@@H](C(=O)N[C@H](C(=O)OC1CCCC1)c1ccccc1)[C@H](O)C(=O)NO [Tosedostat] + N=C(N)NC(=N)NCCc1ccccc1 [Phenformin] (partner 250 µM)
Method in brief: as §1

[1] = compound: CC1=NN=C(O1)C2=NN=C(C=C2)N3CCC(CC3)OC4=C(C=CC(=C4)F)Cl + CCNC(=O)c1noc(-c2cc(C(C)C)c(O)cc2O)c1-c1ccc(CN2CCOCC2)cc1 [Luminespib] (partner 0.01 µM)
Method in brief: as §1

Row | Cell Line | relative viability (Tosedostat + OSI-027; first compound 0.02 µM) | relative viability (Tosedostat + OSI-027; first compound 0.06325 µM) | relative viability (Tosedostat + OSI-027; first compound 0.2 µM) | relative viability (Tosedostat + OSI-027; first compound 0.6325 µM) | relative viability (Tosedostat + OSI-027; first compound 2 µM) | relative viability (Tosedostat + Linsitinib; first compound 0.02 µM) | relative viability (Tosedostat + Linsitinib; first compound 0.06325 µM) | relative viability (Tosedostat + Linsitinib; first compound 0.2 µM) | relative viability (Tosedostat + Linsitinib; first compound 0.6325 µM) | relative viability (Tosedostat + Linsitinib; first compound 2 µM) | relative viability (Tosedostat + Phenformin; first compound 0.02 µM) | relative viability (Tosedostat + Phenformin; first compound 0.06325 µM) | relative viability (Tosedostat + Phenformin; first compound 0.2 µM) | relative viability (Tosedostat + Phenformin; first compound 0.6325 µM) | relative viability (Tosedostat + Phenformin; first compound 2 µM) | relative viability ([1]; first compound 0.253 µM) | relative viability ([1]; first compound 0.8 µM) | relative viability ([1]; first compound 2.53 µM) | relative viability ([1]; first compound 8 µM)
1 | LXF-289 | 0.904 | 0.799 | 0.808 | 0.692 | 0.561 | 1.02 | 0.879 | 1.02 | 0.946 | 0.994 | 0.495 | 0.493 | 0.479 | 0.495 | 0.399 | 0.477 | 0.378 | 0.547 | 0.395
2 | NCI-H1563 | 0.813 | 0.797 | 0.788 | 0.891 | 0.836 | 1.25 | 1.16 | 1.26 | 1.29 | 1.4 | 0.653 | 0.703 | 0.662 | 0.722 | 0.65 | 0.488 | 0.52 | 0.519 | 0.532
3 | HCC-78 | 0.33 | 0.377 | 0.406 | 0.364 | 0.376 | 0.397 | 0.608 | 0.429 | 0.458 | 0.573 | 0.644 | 0.68 | 0.637 | 0.671 | 0.752 | – | – | – | –
4 | NCI-H1666 | 0.839 | 0.856 | 0.822 | 0.835 | 0.845 | 0.864 | 0.815 | 0.805 | 0.818 | 0.989 | 0.547 | 0.527 | 0.554 | 0.612 | 0.567 | 0.537 | 0.504 | 0.479 | 0.444
5 | HCC-15 | 0.751 | 0.718 | 0.579 | 0.467 | 0.46 | 0.826 | 0.876 | 0.848 | 0.831 | 0.672 | 0.512 | 0.46 | 0.432 | 0.348 | 0.32 | 0.342 | 0.303 | 0.294 | 0.286
6 | EKVX | 0.718 | 0.764 | 0.673 | 0.696 | 0.748 | 0.935 | 1.01 | 1.03 | 0.932 | 1.08 | 0.216 | 0.236 | 0.228 | 0.202 | 0.192 | 0.447 | 0.362 | 0.331 | 0.32
7 | NCI-H2347 | 0.364 | 0.203 | 0.459 | 0.353 | 0.427 | 0.989 | 0.967 | 0.992 | 0.949 | 0.975 | 0.384 | 0.439 | 0.55 | 0.267 | 0.275 | – | 0.433 | 0.421 | 0.459
8 | LK-2 | 0.174 | 0.214 | 0.239 | 0.219 | 0.199 | 0.883 | 0.465 | 0.562 | 0.743 | 0.913 | 0.38 | 0.529 | 0.455 | 0.259 | 0.347 | 0.2 | 0.159 | 0.176 | 0.182
9 | NCI-H1651 | 0.747 | 0.801 | 0.62 | 0.708 | 0.598 | 0.996 | 0.963 | 1.11 | 0.875 | 0.863 | 0.324 | 0.328 | 0.293 | 0.267 | 0.306 | 0.738 | 0.749 | 0.685 | 0.692

Source: the supplement of paper PMC10307832
